Series [1] deals with T1, Solute carrier organic anion transporter family member 1B1 (Homo sapiens, UniProt Q9Y6L6).
T1 sequence (Q9Y6L6 whole entry): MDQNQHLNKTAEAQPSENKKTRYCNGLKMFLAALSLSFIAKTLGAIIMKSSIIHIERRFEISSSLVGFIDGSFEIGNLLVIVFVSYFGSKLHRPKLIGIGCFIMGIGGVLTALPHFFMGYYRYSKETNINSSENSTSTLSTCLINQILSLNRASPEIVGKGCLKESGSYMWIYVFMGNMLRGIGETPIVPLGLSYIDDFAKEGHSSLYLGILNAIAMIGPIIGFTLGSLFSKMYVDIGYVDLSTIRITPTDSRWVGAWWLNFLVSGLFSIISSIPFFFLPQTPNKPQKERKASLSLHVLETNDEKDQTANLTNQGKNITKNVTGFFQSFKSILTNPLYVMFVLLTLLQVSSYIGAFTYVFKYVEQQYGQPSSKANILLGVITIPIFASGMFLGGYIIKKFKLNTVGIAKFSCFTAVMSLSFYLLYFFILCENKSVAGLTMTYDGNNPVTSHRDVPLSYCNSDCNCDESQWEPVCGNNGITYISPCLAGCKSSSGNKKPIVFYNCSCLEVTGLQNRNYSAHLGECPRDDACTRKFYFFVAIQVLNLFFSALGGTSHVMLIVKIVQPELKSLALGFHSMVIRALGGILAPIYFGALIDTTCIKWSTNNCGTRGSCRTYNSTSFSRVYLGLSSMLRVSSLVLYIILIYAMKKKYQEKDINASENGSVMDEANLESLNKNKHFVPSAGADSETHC
Conditions: chinese hamster, cho, 10 µM.

Series [2] addresses T2, Solute carrier organic anion transporter family member 1B3 (Homo sapiens, UniProt Q9NPD5).
T2 sequence (Q9NPD5 whole entry): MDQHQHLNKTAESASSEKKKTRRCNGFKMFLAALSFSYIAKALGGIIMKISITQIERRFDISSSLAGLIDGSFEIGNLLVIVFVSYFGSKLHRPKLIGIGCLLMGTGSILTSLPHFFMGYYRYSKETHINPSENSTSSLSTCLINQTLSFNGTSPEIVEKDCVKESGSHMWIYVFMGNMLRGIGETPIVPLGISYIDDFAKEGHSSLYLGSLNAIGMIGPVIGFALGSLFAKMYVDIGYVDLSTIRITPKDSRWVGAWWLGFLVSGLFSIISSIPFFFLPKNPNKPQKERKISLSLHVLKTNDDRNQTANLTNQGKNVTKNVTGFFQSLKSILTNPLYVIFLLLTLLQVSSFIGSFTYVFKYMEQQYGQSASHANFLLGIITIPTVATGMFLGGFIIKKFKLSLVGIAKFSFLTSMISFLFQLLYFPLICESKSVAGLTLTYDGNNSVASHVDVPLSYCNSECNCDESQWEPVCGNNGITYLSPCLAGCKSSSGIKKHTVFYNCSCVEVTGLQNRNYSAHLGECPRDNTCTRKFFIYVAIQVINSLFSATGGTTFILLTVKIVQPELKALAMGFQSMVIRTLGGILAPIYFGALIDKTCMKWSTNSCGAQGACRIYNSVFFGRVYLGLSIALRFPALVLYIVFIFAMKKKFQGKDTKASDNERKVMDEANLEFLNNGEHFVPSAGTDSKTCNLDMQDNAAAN
Conditions: chinese hamster, cho, 10 µM.

With `O=C(Cc1cccs1)N[C@@H]1C(=O)N2C(C(=O)[O-])=C(C[n+]3ccccc3)CS[C@H]12` [CEPHALORIDINE], the residual activity (usually the signal under treatment as a percentage of the control signal) is 14.22% in series [1] and 31.99% in series [2].

For the compound `COC1=C[C@]23CCCN2CCc2cc4c(cc2[C@@H]3[C@@H]1O)OCO4` [CEPHALOTAXINE], the values for the residual activity in series [1] and in series [2] were 77.26% and 77.89%, respectively.

For the compound `CC(=O)OCC1=C(C(=O)[O-])N2C(=O)[C@@H](NC(=O)Cc3cccs3)[C@H]2SC1.[Na+]` [CEPHALOTHIN SODIUM], the residual activity in series [1] was found to be 45.11%; in series [2] it was 66.3%.

Take `CC(=O)OCC1=C(C(=O)[O-])N2C(=O)[C@@H](NC(=O)CSc3ccncc3)[C@H]2SC1.[Na+]` [CEPHAPIRIN SODIUM]: the residual activity in series [1] worked out at 85.65%; in series [2] it was 94.33%.

As to `COc1ccc2cc1Oc1ccc(cc1)C[C@H]1c3c(cc4c(c3Oc3cc5c(cc3OC)CCN(C)[C@@H]5C2)OCO4)CCN1C` [CEPHARANTHINE], the residual activity is 91.94% in series [1] and 125.1% in series [2].

On to `C/C=C(/C)C(=O)O[C@H]1CC[C@@]2(C)[C@@H]3CC[C@H]4[C@]5(O)C[C@H](O)[C@@]6(O)[C@@H](CN7C[C@@H](C)CC[C@H]7[C@@]6(C)O)[C@]5(O)C[C@@]42O[C@]13O` [CEVADINE], for which the residual activity in series [1] is given as 78.54%; in series [2], 84.71%.

As to `CCOC(=O)CCCCCCCCCCCCC1C=CCC1` (stereo not given) [CHAULMOOGRIC ACID, ETHYL ESTER], the residual activity was determined as 108.7% in series [1] and 92.79% in series [2].

On to `O=C(O)CCCCCCCCCCCC[C@@H]1C=CCC1` [CHAULMOOGRIC ACID], for which the residual activity is 83.53% in series [1] and 82.39% in series [2].

Regarding `O=C(CCCCCCCCCCCCC1CCCC1)Nc1ccc(S(=O)(=O)c2ccc(NC(=O)CCCCCCCCCCCCC3CCCC3)cc2)cc1` [CHAULMOSULFONE], the residual activity in series [1] was 65.99%; in series [2], 75.08%.

Take `CN1Cc2c(ccc3c2OCO3)C2C(O)Cc3cc4c(cc3C21)OCO4` (stereo not drawn) [CHELIDONINE (+)]: the residual activity was found to be 59.5% in series [1] and 82.29% in series [2].

Turning to `C[C@H](CCC(=O)O)[C@H]1CC[C@H]2[C@@H]3[C@H](O)C[C@@H]4C[C@H](O)CC[C@]4(C)[C@H]3CC[C@]12C` [CHENODIOL], the results for the residual activity in series [1] and in series [2] were 37.88% and 71.62%, respectively.

As to `O=C(O)CCCc1ccc(N(CCCl)CCCl)cc1` [CHLORAMBUCIL], the residual activity is on record as 123.9% in series [1] and 102.7% in series [2].

Turning to `O=C1C(Cl)=C(Cl)C(=O)C(Cl)=C1Cl` [CHLORANIL], the residual activity in series [1] is 80.53%; in series [2], 74.83%.

Turning to `ClC1=C(Cl)C2(Cl)C3C(Cl)C(Cl)CC3C1(Cl)C2(Cl)Cl` (stereo not given) [CHLORDANE], the residual activity in series [1] was 98.3%; in series [2], 121.6%.

For `CC(=O)O[C@]1(C(C)=O)CC[C@H]2[C@@H]3C=C(Cl)C4=CC(=O)CC[C@]4(C)[C@H]3CC[C@@]21C` [CHLORMADINONE ACETATE], the values for the residual activity in series [1] and in series [2] were 9.748% and 24.36%, respectively.

Regarding `CN1C(=O)CCS(=O)(=O)C1c1ccc(Cl)cc1` (stereo not given) [CHLORMEZANONE], the values for the residual activity in series [1] and in series [2] were 97.47% and 92%, respectively.

Consider `CC(=O)Oc1ccc(Cl)c2cccnc12` [CHLOROACETOXYQUINOLINE], for which the residual activity is 90.22% in series [1] and 92.5% in series [2].

Consider `Cc1cc(O)ccc1Cl` [CHLOROCRESOL], for which the residual activity in series [1] amounted to 119.6%; in series [2], 91.23%.

Consider `O=C(/C=C/c1ccc(O)c(O)c1)O[C@@H]1C[C@](O)(C(=O)O)C[C@@H](O)[C@H]1O` [CHLOROGENIC ACID], for which the residual activity is 105.9% in series [1] and 103.1% in series [2].

For the compound `Clc1ccc(C(c2ccc(Cl)cc2)C(Cl)(Cl)Cl)cc1` [CHLOROPHENOTHANE], the residual activity was found to be 124.5% in series [1] and 116.2% in series [2].

`CCN(CC)CCCC(C)Nc1ccnc2cc(Cl)ccc12.O=P(O)(O)O.O=P(O)(O)O` (stereo not given) [CHLOROQUINE PHOSPHATE]: the residual activity in series [1] came to 84.34%; in series [2], 99.18%.

Turning to `N#Cc1c(Cl)c(Cl)c(Cl)c(C#N)c1Cl` [CHLOROTHALONIL], the residual activity in series [1] stood at 92.97%; in series [2], 81.58%.

In the case of `COc1ccc(C(Cl)=C(c2ccc(OC)cc2)c2ccc(OC)cc2)cc1` [CHLOROTRIANISENE], the residual activity in series [1] was determined as 91.3%; in series [2] it was 92.54%.

For `Oc1c(Cl)cc(Cl)c2cccnc12` [CHLOROXINE], the values for the residual activity in series [1] and in series [2] were 43.47% and 62.22%, respectively.

With `Cc1cc(O)cc(C)c1Cl` [CHLOROXYLENOL], the residual activity in series [1] is recorded as 116.8%; in series [2], 121.1%.

On to `CN(C)CCCN1c2ccccc2Sc2ccc(Cl)cc21` [CHLORPROMAZINE], for which the residual activity is given as 99.49% in series [1] and 97.66% in series [2].

`CCCNC(=O)NS(=O)(=O)c1ccc(Cl)cc1` [CHLORPROPAMIDE]: the values for the residual activity in series [1] and in series [2] were 102% and 102.2%, respectively.

In the case of `CC(C)OC(=O)Nc1cccc(Cl)c1` [CHLORPROPHAM], the values for the residual activity in series [1] and in series [2] were 104.8% and 107%, respectively.

Regarding `CN(C)CC/C=C1/c2ccccc2Sc2ccc(Cl)cc21.Cl` [CHLORPROTHIXENE HYDROCHLORIDE], the residual activity in series [1] came to 85.65%; in series [2], 101.8%.

Turning to `CCOP(=S)(OCC)Oc1nc(Cl)c(Cl)cc1Cl` [CHLORPYRIFOS], the residual activity in series [1] worked out at 140%; in series [2], 127.1%.

As to `Cc1ccc2c(Cl)cc(Cl)c(O)c2n1` [CHLORQUINALDOL], the residual activity in series [1] worked out at 98.6%; in series [2], 88.49%.

Consider `CN(C)[C@@H]1C(O)=C(C(N)=O)C(=O)[C@@]2(O)C(O)=C3C(=O)c4c(O)ccc(Cl)c4[C@@](C)(O)[C@H]3C[C@@H]12.Cl` [CHLORTETRACYCLINE HYDROCHLORIDE], for which the results for the residual activity in series [1] and in series [2] were 128.8% and 95.91%, respectively.

Take `NS(=O)(=O)c1cc(C2(O)NC(=O)c3ccccc32)ccc1Cl` (stereo not given) [CHLORTHALIDONE]: the residual activity worked out at 62.41% in series [1] and 67.04% in series [2].

As to `CC(C)CCC[C@@H](C)[C@H]1CC[C@H]2[C@@H]3CC=C4CC(=O)CC[C@]4(C)[C@H]3CC[C@]12C` [CHOLEST-5-EN-3-ONE], the residual activity in series [1] was found to be 119.6796%; in series [2], 103.5%.

For `CC(C)CCC[C@@H](C)[C@H]1CC[C@H]2[C@@H]3CC[C@H]4CC(=O)CC[C@]4(C)[C@H]3CC[C@]12C` [CHOLESTAN-3-ONE], the results for the residual activity in series [1] and in series [2] were 74.43% and 73.06%, respectively.

For `CC(C)CCC[C@@H](C)[C@H]1CC[C@H]2[C@@H]3C[C@@H](O)[C@@]4(O)C[C@@H](O)CC[C@]4(C)[C@H]3CC[C@]12C` [CHOLESTAN-3beta,5alpha,6beta-TRIOL], the residual activity in series [1] is on record as 90.42%; in series [2], 93.54%.

Turning to `CC(C)CCC[C@@H](C)[C@H]1CC[C@H]2[C@@H]3CC=C4C[C@@H](O)CC[C@]4(C)[C@H]3CC[C@]12C` [CHOLESTEROL], the residual activity in series [1] was determined as 95.51%; in series [2] it was 100%.

With `C[C@H](CCC(=O)O)[C@H]1CC[C@H]2[C@@H]3[C@H](O)C[C@@H]4C[C@H](O)CC[C@]4(C)[C@H]3C[C@H](O)[C@]12C` [CHOLIC ACID], the residual activity in series [1] turned out to be 99.52%; in series [2], 75.03%.

With `C[N+](C)(C)CCO.[Cl-]` [CHOLINE CHLORIDE], the residual activity in series [1] was determined as 93.68%; in series [2] it was 113.2%.

With `O=C(O)c1cc(=O)c2ccccc2o1` [CHROMOCARB], the residual activity in series [1] is recorded as 133.6%; in series [2] it was 93%.

(Values after ChEMBL document CHEMBL3039007, “Structure-based identification of OATP1B1/3 inhibitors” (Mol Pharmacol, 2013).)
